IC50 data for 15 molecules are collected here from patent US20240409585A1, “MACROCYCLIC IMMUNOMODULATORS” (priority 2021, published 2024).

One may read the IC50 as the concentration that gives 50% inhibition.

Bridge positions count the residues as written; N and C are the ends. Square brackets hold non-standard residues; d marks the D form. Peptide text beside a SMILES is read from it. * marks the point of attachment. ξ: configuration not given here. Tyr(3-NO2) = N[C@@H](Cc1ccc(O)c([N+](=O)[O-])c1)C(=O)O; Phe(4-COOH) = N[C@@H](Cc1ccc(C(=O)O)cc1)C(=O)O; Bip = N[C@@H](Cc1ccc(-c2ccccc2)cc1)C(=O)O; Phe(3-Me) = Cc1cccc(C[C@H](N)C(=O)O)c1; Val(3-OH) = CC(C)(O)[C@H](N)C(=O)O; 4Pal = N[C@@H](Cc1ccncc1)C(=O)O; Cha = N[C@@H](CC1CCCCC1)C(=O)O; Cit = NC(=O)NCCC[C@H](N)C(=O)O; Ile(3ξ) = CCC(C)[C@H](N)C(=O)O; Thr(3ξ) = CC(O)[C@H](N)C(=O)O; Carboxymethyl = O=C(O)C*; NMeA = CN[C@@H](C)C(=O)O; Orn = NCCC[C@H](N)C(=O)O; Dab = NCC[C@H](N)C(=O)O; Dap = NC[C@H](N)C(=O)O; Piv = CC(C)(C)C(=O)*

The target of the assay is T1, PE-labeled human PD-L1-Ig binding to Jurkat cell line over-expressing human PD-1 (Jurkat-PD-1) (Homo sapiens, UniProt Q15116).
T1 construct: expressed in transfected cells; host or cells: Jurkat
T1 sequence (Q15116 25-288): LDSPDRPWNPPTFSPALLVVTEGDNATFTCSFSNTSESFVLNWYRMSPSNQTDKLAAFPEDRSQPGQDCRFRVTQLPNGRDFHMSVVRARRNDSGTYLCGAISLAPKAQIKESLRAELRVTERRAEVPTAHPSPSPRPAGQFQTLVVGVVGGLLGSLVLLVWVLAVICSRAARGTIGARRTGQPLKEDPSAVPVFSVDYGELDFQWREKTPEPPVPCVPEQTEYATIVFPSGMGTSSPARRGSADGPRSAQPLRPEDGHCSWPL
Description: Jurkat-PD-1 Cell Binding High-Content Screening Assay (CBA): Method 1. Conditions: Jurkat-hPD-1 cells, PE-labeled PD-L1-Ig 20 nM final; read-out: Jurkat HPDL1 PD1 IC50 (uM) (Method 1).
With `Cc1cccc(C[C@@H]2NC(=O)[C@H](CC(=O)O)NC(=O)[C@H](Cc3ccc(OCC(=O)O)cc3)NC(=O)[C@H](C(C)O)NC(=O)CSC[C@@H](C(=O)N[C@@H](CCN)C(N)=O)NC(=O)[C@H](CO)NC(=O)[C@H](C(C)(C)O)NC(=O)[C@H](CC3CCCCC3)NC(=O)[C@H](CCN)NC(=O)[C@@H](CC(C)C)NC(=O)[C@H](C)N(C)C(=O)[C@H](Cc3ccc(OCC(=O)O)cc3)NC(=O)[C@H](Cc3ccc(-c4ccccc4)cc3)NC(=O)[C@H](Cc3ccc(OCC(=O)O)cc3)NC2=O)c1` (stereo partly drawn) [Compound 2149] ({CH2CO}-[Thr(3ξ)]Y(Carboxymethyl)D[Phe(3-Me)]Y(Carboxymethyl)[Bip]Y(Carboxymethyl)[NMeA][dL][Dab][Cha][Val(3-OH)]SC[Dab]-NH2; thioether N-14), the IC50 worked out at 0.02 µM. The value for `CC(C)C[C@@H]1NC(=O)[C@H](CCCNC(=N)N)NC(=O)[C@@H](Cc2ccc(O)cc2)NC(=O)[C@H](C)N(C)C(=O)[C@H](CCCNC(=N)N)NC(=O)[C@H](Cc2ccc(-c3ccccc3)cc2)NC(=O)[C@H](C(C)C)NC(=O)[C@H](Cc2c[nH]c3ccccc23)NC(=O)[C@H](CC(=O)O)NC(=O)[C@H](Cc2ccc(O)cc2)NC(=O)[C@H](Cc2ccccc2)NC(=O)CSC[C@@H](C(=O)NCC(N)=O)NC(=O)[C@H](CO)NC(=O)[C@H](C(C)C)NC1=O` [Compound 1020] ({CH2CO}-FYDWV[Bip]R[NMeA][dY]RLVSCG-NH2; thioether N-14) was 0.07 µM; that for `Cc1cccc(C[C@@H]2NC(=O)[C@H](CC(=O)O)NC(=O)[C@H](Cc3ccc(O)cc3)NC(=O)[C@H](Cc3ccccc3)NC(=O)CSC[C@@H](C(=O)NCC(N)=O)NC(=O)[C@H](CO)NC(=O)[C@H](C(C)C)NC(=O)[C@H](CC(C)C)NC(=O)[C@H](CC(N)=O)NC(=O)[C@@H](CC(C)C)NC(=O)[C@H](C)N(C)C(=O)[C@H](C(C)C)NC(=O)[C@H](Cc3ccc(-c4ccccc4)cc3)NC(=O)[C@H](CC(C)C)NC2=O)c1` [Compound 1517] ({CH2CO}-FYD[Phe(3-Me)]L[Bip]V[NMeA][dL]NLVSCG-NH2; thioether N-14) was 0.02 µM. The value for `CC(C)C[C@@H]1NC(=O)[C@H](CCCN)NC(=O)[C@@H](CC(C)C)NC(=O)[C@H](C)N(C)C(=O)[C@H](CCCNC(=N)N)NC(=O)[C@H](Cc2ccc(-c3ccccc3)cc2)NC(=O)[C@H](C(C)C)NC(=O)[C@H](Cc2c[nH]c3ccccc23)NC(=O)[C@H](CC(=O)O)NC(=O)[C@H](Cc2ccc(O)cc2)NC(=O)[C@H](CC(N)=O)NC(=O)CSC[C@@H](C(=O)N[C@@H](C)C(N)=O)NC(=O)[C@H]([C@@H](C)O)NC(=O)[C@H](C(C)C)NC1=O` [Compound 1128] ({CH2CO}-NYDWV[Bip]R[NMeA][dL][Orn]LVTCA-NH2; thioether N-14) was 0.08 µM; that for `Cc1cccc(C[C@@H]2NC(=O)[C@H](CC(=O)O)NC(=O)[C@H](Cc3ccc(OCC(=O)O)cc3)NC(=O)[C@H](Cc3ccncc3)NC(=O)CSC[C@@H](C(=O)N[C@@H](CCN)C(N)=O)NC(=O)[C@H]([C@@H](C)O)NC(=O)[C@H](C(C)C)NC(=O)[C@H](CC3CCCCC3)NC(=O)[C@H](CCNC(=O)C(C)(C)C)NC(=O)[C@@H](CC(C)C)NC(=O)[C@H](C)N(C)C(=O)[C@H](Cc3ccc(OCC(=O)O)cc3)NC(=O)[C@H](Cc3ccc(-c4ccccc4)cc3)NC(=O)[C@H](Cc3ccc(OCC(=O)O)cc3)NC2=O)c1` [Compound 1865] ({CH2CO}-[4Pal]Y(Carboxymethyl)D[Phe(3-Me)]Y(Carboxymethyl)[Bip]Y(Carboxymethyl)[NMeA][dL][Dab](Piv)[Cha]VTC[Dab]-NH2; thioether N-14) was 0.02 µM; that for `CC(C)C[C@@H]1NC(=O)[C@H](CCN)NC(=O)[C@@H](CC(C)C)NC(=O)[C@H](C)N(C)C(=O)[C@H](CCCNC(=N)N)NC(=O)[C@H](Cc2ccc(-c3ccccc3)cc2)NC(=O)[C@H](C(C)C)NC(=O)[C@H](Cc2c[nH]c3ccccc23)NC(=O)[C@H](CC(=O)O)NC(=O)[C@H](Cc2ccc(O)cc2)NC(=O)[C@H](CC(N)=O)NC(=O)CSC[C@@H](C(=O)N[C@@H](CO)C(N)=O)NC(=O)[C@H]([C@@H](C)O)NC(=O)[C@H](C(C)C)NC1=O` [Compound 1179] ({CH2CO}-NYDWV[Bip]R[NMeA][dL][Dab]LVTCS-NH2; thioether N-14) was 0.07 µM. Turning to `Cc1cccc(C[C@@H]2NC(=O)[C@H](CC(=O)O)NC(=O)[C@H](Cc3ccc(OCC(=O)O)cc3)NC(=O)[C@H](CN)NC(=O)CSC[C@@H](C(=O)N[C@@H](C)C(N)=O)NC(=O)[C@H]([C@@H](C)O)NC(=O)[C@H](C(C)C)NC(=O)[C@H](CC(C)C)NC(=O)[C@H](CCN)NC(=O)[C@@H](CC(C)C)NC(=O)[C@H](C)N(C)C(=O)[C@H](C(C)C)NC(=O)[C@H](Cc3ccc(-c4ccccc4)cc3)NC(=O)[C@H](C(C)C)NC2=O)c1` [Compound 1418] ({CH2CO}-[Dap]Y(Carboxymethyl)D[Phe(3-Me)]V[Bip]V[NMeA][dL][Dab]LVTCA-NH2; thioether N-14), the IC50 was found to be 0.01 µM. The result for `CC(C)C[C@@H]1NC(=O)[C@H](CC(N)=O)NC(=O)[C@@H](CC(C)C)NC(=O)[C@H](C)N(C)C(=O)[C@H](CCCNC(N)=O)NC(=O)[C@H](Cc2ccc(-c3ccccc3)cc2)NC(=O)[C@H](C(C)C)NC(=O)[C@H](Cc2c[nH]c3ccccc23)NC(=O)[C@H](CC(=O)O)NC(=O)[C@H](Cc2ccc(O)cc2)NC(=O)[C@H](Cc2ccccc2)NC(=O)CSC[C@@H](C(=O)N[C@@H](C)C(N)=O)NC(=O)[C@H](C(C)O)NC(=O)[C@H](C(C)C)NC1=O` (stereo partly drawn) [Compound 2031] ({CH2CO}-FYDWV[Bip][Cit][NMeA][dL]NLV[Thr(3ξ)]CA-NH2; thioether N-14) reads 0.07 µM; that for `CC(C)C[C@@H]1NC(=O)[C@H](CCCNC(=N)N)NC(=O)[C@@H](Cc2ccccc2)NC(=O)[C@H](C)N(C)C(=O)[C@H](CCCNC(=N)N)NC(=O)[C@H](Cc2ccc(-c3ccccc3)cc2)NC(=O)[C@H](C(C)C)NC(=O)[C@H](Cc2c[nH]c3ccccc23)NC(=O)[C@H](CC(=O)O)NC(=O)[C@H](Cc2ccc(O)c([N+](=O)[O-])c2)NC(=O)[C@H](CC(N)=O)NC(=O)CSC[C@@H](C(=O)N[C@@H](C)C(N)=O)NC(=O)[C@H]([C@@H](C)O)NC(=O)[C@H](C(C)C)NC1=O` [Compound 1167] ({CH2CO}-N[Tyr(3-NO2)]DWV[Bip]R[NMeA][dF]RLVTCA-NH2; thioether N-14), 0.1 µM. The value for `Cc1cccc(C[C@@H]2NC(=O)[C@H](CC(=O)O)NC(=O)[C@H](Cc3ccc(OCC(=O)O)cc3)NC(=O)[C@H](CN)NC(=O)CSC[C@@H](C(N)=O)NC(=O)[C@H](CCCN)NC(=O)[C@H](C(C)C)NC(=O)[C@H](CC3CCCCC3)NC(=O)[C@H](CCN)NC(=O)[C@@H](CC(C)C)NC(=O)[C@H](C)N(C)C(=O)[C@H](Cc3ccc(OCC(=O)O)cc3)NC(=O)[C@H](Cc3ccc(-c4ccccc4)cc3)NC(=O)[C@H](Cc3ccc(OCC(=O)O)cc3)NC2=O)c1` [Compound 1646] ({CH2CO}-[Dap]Y(Carboxymethyl)D[Phe(3-Me)]Y(Carboxymethyl)[Bip]Y(Carboxymethyl)[NMeA][dL][Dab][Cha]V[Orn]C-NH2; thioether N-14) was 0.03 µM; that for `CCC(C)[C@@H]1NC(=O)[C@H](Cc2ccc(-c3ccccc3)cc2)NC(=O)[C@H](CC(C)C)NC(=O)[C@H](Cc2c[nH]c3ccccc23)NC(=O)[C@H](CC(=O)O)NC(=O)[C@H](Cc2ccc(OCC(=O)O)cc2)NC(=O)[C@H](C(C)O)NC(=O)CSC[C@@H](C(=O)N[C@@H](CC(N)=O)C(=O)O)NC(=O)[C@H](CO)NC(=O)[C@H](C(C)C)NC(=O)[C@H](CC(C)C)NC(=O)[C@H](CCN)NC(=O)[C@@H](CC(C)C)NC(=O)[C@H](C)N(C)C1=O` (stereo partly drawn) [Compound 2220] ({CH2CO}-[Thr(3ξ)]Y(Carboxymethyl)DWL[Bip][Ile(3ξ)][NMeA][dL][Dab]LVSCN-OH; thioether N-14) was 0.04 µM.

As to `CC(C)C[C@@H]1NC(=O)[C@H](Cc2c[nH]c3ccccc23)NC(=O)[C@H](CC(=O)O)NC(=O)[C@H](Cc2ccc(O)cc2)NC(=O)[C@H](Cc2ccccc2)NC(=O)CSC[C@@H](C(=O)N[C@@H](C)C(N)=O)NC(=O)[C@H](CO)NC(=O)[C@H](CCCN)NC(=O)[C@H](CC(C)C)NC(=O)[C@H](CC(N)=O)NC(=O)[C@@H](C)NC(=O)[C@H](C)N(C)C(=O)[C@H](C(C)C)NC(=O)[C@H](Cc2ccc(-c3ccccc3)cc2)NC1=O` [Compound 1530] ({CH2CO}-FYDWL[Bip]V[NMeA][dA]NL[Orn]SCA-NH2; thioether N-14), the IC50 turned out to be 0.03 µM. The result for `CC(C)C[C@H]1NC(=O)[C@H](C)N(C)C(=O)[C@H](CCCNC(N)=O)NC(=O)[C@H](Cc2ccc(-c3ccccc3)cc2)NC(=O)[C@H](C(C)C)NC(=O)[C@H](Cc2c[nH]c3ccccc23)NC(=O)[C@H](CC(=O)O)NC(=O)[C@H](Cc2ccc(O)cc2)NC(=O)[C@H](CN)NC(=O)CSC[C@@H](C(=O)N[C@@H](C)C(N)=O)NC(=O)[C@H]([C@@H](C)O)NC(=O)[C@H](C(C)C)NC(=O)[C@H](CC2CCCCC2)NC(=O)[C@H](CCCNC(=N)N)NC1=O` [Compound 1503] ({CH2CO}-[Dap]YDWV[Bip][Cit][NMeA][dL]R[Cha]VTCA-NH2; thioether N-14) reads 0.01 µM; that for `CC(C)C[C@@H]1NC(=O)[C@H](Cc2c[nH]c3ccccc23)NC(=O)[C@H](CC(=O)O)NC(=O)[C@H](Cc2ccc(O)cc2)NC(=O)[C@H](Cc2ccccc2)NC(=O)CSC[C@@H](C(=O)N[C@@H](C)C(N)=O)NC(=O)[C@H](CO)NC(=O)[C@H](C(C)C)NC(=O)[C@H](CC(C)C)NC(=O)[C@H](CC(N)=O)NC(=O)[C@@H](CCCNC(=N)N)NC(=O)[C@H](C)N(C)C(=O)[C@H](C(C)C)NC(=O)[C@H](Cc2ccc(-c3ccccc3)cc2)NC1=O` [Compound 1804] ({CH2CO}-FYDWL[Bip]V[NMeA][dR]NLVSCA-NH2; thioether N-14), 0.21 µM. The result for `CCC(C)[C@@H]1NC(=O)[C@H](Cc2ccc(-c3ccccc3)cc2)NC(=O)[C@H](C(C)C)NC(=O)[C@H](Cc2cccc(C)c2)NC(=O)[C@H](CC(=O)O)NC(=O)[C@H](Cc2ccc(C(=O)O)cc2)NC(=O)[C@H](Cc2ccncc2)NC(=O)CSC[C@@H](C(N)=O)NC(=O)[C@H](CCCN)NC(=O)[C@H](C(C)C)NC(=O)[C@H](CC(C)C)NC(=O)[C@H](CCN)NC(=O)[C@@H](CC(C)C)NC(=O)[C@H](C)N(C)C1=O` (stereo partly drawn) [Compound 1900] ({CH2CO}-[4Pal][Phe(4-COOH)]D[Phe(3-Me)]V[Bip][Ile(3ξ)][NMeA][dL][Dab]LV[Orn]C-NH2; thioether N-14) reads 0.05 µM.
